The subject of experiment [1] is model mice of hyperglycemia (KKAy mouse). Kind of experiment: Amount of 13CO2 excreted in exhaled gas after oral glucose-U-13C6. It counts as in vivo. Conditions: 0.1% by mass in high fat diet for one week, four hours after oral glucose-U-13C6, versus control group. How it is done:
Twenty-four model mice of hyperglycemia (KKAy mouse (product of CLEA Japan, Inc.), male, four weeks old) were preliminarily bred for one week in individual cages under the following conditions: temperature: room temperature (22° C.±1° C.), humidity: 50%±5%, and light-dark cycle: 12 hours. Eight grams per day of CE-2 (product of CLEA Japan, Inc.) was given to each mouse as feed during the preliminary breeding, while water was given ad libitum. […] Thereafter, an aqueous solution of glucose and glucose-U-^13C6 was orally administered to each mouse at a concentration calculated from the following: [2.0 g D-glucose (product of NACALAI TESQUE, INC.)+72 mg D-glucose-U-^13C6 (99%) (product of Cambridge Isotope Lab.)/kg-body weight]. Then, the cumulative amount of ^13CO2 excreted was measured for four hours. The cumulative amount of ^13CO2 excreted is expressed as AUC (increment in the amount of ^13CO2 excreted). Here, the AUC (increment in the amount of ^13CO2 excreted) refers to an area corresponding to the increment between the amount of ^13CO2^3 excreted prior to administration of glucose-U-^13C6 (baseline) to the amount of ^13CO2 excreted measured four hours after administration of glucose-U-^13C6 in a graph where a change in the amount of ^13CO2 excreted is plotted against time after administration of glucose-U-^13C6.

Experiment [2] has the same test system. Kind of experiment: Blood sugar level of KKAy mice after one-week main breeding on high fat diet containing PT or PD. In kind it is in vivo. The settings on record: 0.1% by mass in high fat diet (control group 335.4 mg/dL). How it is done: Twenty-four model mice of hyperglycemia (KKAy mouse (product of CLEA Japan, Inc.), male, four weeks old) were preliminarily bred for one week in individual cages under the following conditions: temperature: room temperature (22° C.±1° C.), humidity: 50%±5%, and light-dark cycle: 12 hours. Eight grams per day of CE-2 (product of CLEA Japan, Inc.) was given to each mouse as feed during the preliminary breeding, while water was given ad libitum. After completion of the preliminary breeding, the mice were measured for body weight and blood sugar level. Then, they were divided into three groups, each containing eight mice, so that the body weights and blood sugar levels were averaged in the three groups, followed by main breeding in a manner described below. […] GB SENSOR (product of Sanko Junyaku Co., Ltd.) using the whole blood sampled from the tale vein of the mouse. The mice of one group were subjected to main breeding for one week under the conditions that eight grams per day of a commercially available high fat diet (trade name: Quick Fat, product of CLEA Japan, Inc.) was given to each mouse while water was given ad libitum. […] Hereinafter, this group may be referred to as “PD-administered group.” After the one-week main breeding, the mice were measured for blood sugar level and body weight, and then were subjected to measurement of the amount of ^13CO2 excreted.

`CC1(C)CCC[C@](C)([C@H]2CC[C@]3(C)[C@@H]2[C@H](O)C[C@@H]2[C@@]4(C)CC[C@H](O)C(C)(C)[C@@H]4CC[C@]23C)O1` [PD, panaxadiol]: the “amount of 13CO2 excreted” value in experiment [1] is on record as “significantly increased”. Also, the blood sugar level in experiment [2] stood at 231.6 mg/dL.

As to `CC1(C)CCC[C@](C)([C@H]2CC[C@]3(C)[C@@H]2[C@H](O)C[C@@H]2[C@@]4(C)CC[C@H](O)C(C)(C)[C@@H]4[C@@H](O)C[C@]23C)O1` [PT, panaxatriol], in experiment [1], the “amount of 13CO2 excreted” value is listed as “significantly increased”. Moreover, the blood sugar level in experiment [2] is on record as 199.3 mg/dL.

Values taken from patent publication US20120116069A1, “GLUCOSE METABOLISM-IMPROVING AGENT AND GLUCOSE METABOLISM-IMPROVING COMPOSITION” (LION CORPORATION, priority 2009, published 2012).
